This note sets out measurements from ChEMBL document CHEMBL1201862, “PubChem BioAssay data set” (2004).

SMILES strings stand for the structures. Active and inactive are the calls of the source.

One test deals with Melanocortin receptor 4 (Homo sapiens, UniProt P32245). The class given is functional, cell-based.
The next test has as its target Cytochrome P450 2C19 (Homo sapiens, UniProt P33261). As to the kind of experiment: Cytochrome panel assay with activity outcomes. Panel member name: p450-cyp2c19 Compounds with AC50 equal or less than 10 uM are considered active. In kind it is functional. To be noted: read-out: AC50.
In another test the target is Cytochrome P450 2C9 (Homo sapiens, UniProt P11712).
Another test concerns the target T1, Leucine aminopeptidase (Plasmodium falciparum 3D7, UniProt Q8IL11).
T1 sequence (Q8IL11 whole entry): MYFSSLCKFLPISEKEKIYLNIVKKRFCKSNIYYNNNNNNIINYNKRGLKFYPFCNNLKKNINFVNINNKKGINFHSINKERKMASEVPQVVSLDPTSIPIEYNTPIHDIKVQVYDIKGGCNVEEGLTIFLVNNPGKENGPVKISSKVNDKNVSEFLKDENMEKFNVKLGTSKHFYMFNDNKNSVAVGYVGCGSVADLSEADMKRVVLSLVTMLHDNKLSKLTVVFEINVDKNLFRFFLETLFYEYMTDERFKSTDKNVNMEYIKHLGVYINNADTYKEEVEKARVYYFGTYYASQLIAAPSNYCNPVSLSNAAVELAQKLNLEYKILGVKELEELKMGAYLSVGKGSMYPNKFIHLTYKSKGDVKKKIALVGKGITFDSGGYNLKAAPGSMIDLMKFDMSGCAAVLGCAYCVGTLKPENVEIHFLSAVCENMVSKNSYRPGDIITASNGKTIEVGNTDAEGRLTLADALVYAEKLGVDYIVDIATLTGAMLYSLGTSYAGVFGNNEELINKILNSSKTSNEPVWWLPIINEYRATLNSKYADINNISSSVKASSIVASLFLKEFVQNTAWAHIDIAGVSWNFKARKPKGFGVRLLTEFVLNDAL
As to the kind of experiment: P. falciparum M17LAP inhibitors, primary screen, biochemical, fluorogenic H-Leu-NHMec substrate, 1536-well (AID 1619). In kind it is functional.

Test [1] deals with T2, Mitochondrial peptide methionine sulfoxide reductase (Bos taurus, UniProt P54149).
T2 sequence (P54149 whole entry): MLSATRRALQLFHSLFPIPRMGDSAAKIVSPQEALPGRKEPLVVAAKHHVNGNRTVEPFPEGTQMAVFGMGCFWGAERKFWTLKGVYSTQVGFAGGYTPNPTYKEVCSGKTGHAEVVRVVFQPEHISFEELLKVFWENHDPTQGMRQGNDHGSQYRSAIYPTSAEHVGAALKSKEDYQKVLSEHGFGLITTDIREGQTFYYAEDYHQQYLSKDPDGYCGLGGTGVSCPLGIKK
As to the kind of experiment: Absorbance-based biochemical high throughput dose response assay for activators of Methionine sulfoxide reductase A (MsrA). In kind it is functional.

Test [2] addresses T3, Aryl hydrocarbon receptor (Homo sapiens, UniProt P35869).
T3 sequence (P35869 whole entry): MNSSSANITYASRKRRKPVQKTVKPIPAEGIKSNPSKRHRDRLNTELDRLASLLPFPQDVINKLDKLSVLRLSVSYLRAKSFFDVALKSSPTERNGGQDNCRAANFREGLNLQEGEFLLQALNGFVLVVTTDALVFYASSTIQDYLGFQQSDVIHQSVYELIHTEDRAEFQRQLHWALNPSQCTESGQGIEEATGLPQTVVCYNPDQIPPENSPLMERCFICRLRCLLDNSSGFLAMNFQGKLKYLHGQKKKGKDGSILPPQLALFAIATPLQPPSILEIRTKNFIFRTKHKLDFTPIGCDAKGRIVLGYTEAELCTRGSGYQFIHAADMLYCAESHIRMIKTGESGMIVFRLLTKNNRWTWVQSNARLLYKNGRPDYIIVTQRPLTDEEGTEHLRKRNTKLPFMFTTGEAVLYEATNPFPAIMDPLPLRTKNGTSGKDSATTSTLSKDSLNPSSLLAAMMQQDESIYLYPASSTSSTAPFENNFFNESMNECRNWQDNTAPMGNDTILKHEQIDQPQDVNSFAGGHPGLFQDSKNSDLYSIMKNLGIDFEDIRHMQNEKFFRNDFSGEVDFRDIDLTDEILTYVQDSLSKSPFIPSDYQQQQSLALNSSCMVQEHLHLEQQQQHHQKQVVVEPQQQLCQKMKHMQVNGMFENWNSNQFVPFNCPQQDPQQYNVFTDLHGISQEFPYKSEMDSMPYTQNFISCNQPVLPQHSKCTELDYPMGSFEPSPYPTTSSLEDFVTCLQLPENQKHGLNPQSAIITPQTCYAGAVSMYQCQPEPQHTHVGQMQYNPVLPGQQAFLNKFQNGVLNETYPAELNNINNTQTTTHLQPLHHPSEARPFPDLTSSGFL
To be noted: Potency.

For another test, the target named is T4, Caspase-3 (Homo sapiens, UniProt P42574).
T4 sequence (P42574 whole entry): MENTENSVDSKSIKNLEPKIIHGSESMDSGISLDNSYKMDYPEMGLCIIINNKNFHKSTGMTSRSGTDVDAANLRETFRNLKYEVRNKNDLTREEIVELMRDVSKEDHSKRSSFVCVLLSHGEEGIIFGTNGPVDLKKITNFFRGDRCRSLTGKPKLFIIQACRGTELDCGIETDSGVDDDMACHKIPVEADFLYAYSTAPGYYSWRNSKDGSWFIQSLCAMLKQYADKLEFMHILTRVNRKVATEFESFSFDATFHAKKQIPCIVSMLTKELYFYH
As to the kind of experiment: SAR Analysis of small molecule inhibitors of Sentrin-specific proteases (SENPs) using a Caspase-3 Selectivity assay. [Related pubchem assays (depositor defined):AID2540, AID2599, AID434973, AID489001]. In kind it is functional.

Test [3] has as its target T5, Sentrin-specific protease 6 (Homo sapiens, UniProt Q9GZR1).
T5 sequence (Q9GZR1 whole entry): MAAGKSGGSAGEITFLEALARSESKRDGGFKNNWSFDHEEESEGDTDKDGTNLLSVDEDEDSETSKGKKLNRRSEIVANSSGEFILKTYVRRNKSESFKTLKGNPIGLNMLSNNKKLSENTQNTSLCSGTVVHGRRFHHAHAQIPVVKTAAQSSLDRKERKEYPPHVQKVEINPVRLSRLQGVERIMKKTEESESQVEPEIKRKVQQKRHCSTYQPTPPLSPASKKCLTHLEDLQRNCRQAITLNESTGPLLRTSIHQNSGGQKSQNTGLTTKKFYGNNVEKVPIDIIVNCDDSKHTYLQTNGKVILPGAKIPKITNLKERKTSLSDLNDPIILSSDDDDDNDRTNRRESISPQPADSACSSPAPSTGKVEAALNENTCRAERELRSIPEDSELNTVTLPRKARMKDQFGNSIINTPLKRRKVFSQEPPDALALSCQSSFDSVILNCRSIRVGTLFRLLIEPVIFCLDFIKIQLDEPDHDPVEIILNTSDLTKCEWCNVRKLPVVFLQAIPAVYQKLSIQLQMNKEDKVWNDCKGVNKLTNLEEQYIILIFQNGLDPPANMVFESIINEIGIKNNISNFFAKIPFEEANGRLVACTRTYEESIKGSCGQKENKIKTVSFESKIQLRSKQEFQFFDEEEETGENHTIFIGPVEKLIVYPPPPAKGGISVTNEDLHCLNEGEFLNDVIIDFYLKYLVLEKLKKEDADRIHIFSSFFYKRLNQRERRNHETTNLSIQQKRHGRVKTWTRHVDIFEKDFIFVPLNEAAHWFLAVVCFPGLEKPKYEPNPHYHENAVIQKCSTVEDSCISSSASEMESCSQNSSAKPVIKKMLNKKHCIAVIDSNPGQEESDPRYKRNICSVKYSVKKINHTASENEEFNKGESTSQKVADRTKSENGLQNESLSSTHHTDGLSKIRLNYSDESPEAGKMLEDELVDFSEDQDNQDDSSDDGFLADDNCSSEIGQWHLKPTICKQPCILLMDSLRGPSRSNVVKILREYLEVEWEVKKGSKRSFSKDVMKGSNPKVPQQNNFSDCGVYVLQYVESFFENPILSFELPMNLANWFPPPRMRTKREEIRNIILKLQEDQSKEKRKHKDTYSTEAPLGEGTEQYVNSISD
As to the kind of experiment: SAR Analysis of small molecule inhibitors of Sentrin-specific protease 6 (SENP6) using a Luminescent assay. [Related pubchem assays (depositor defined):AID2582, AID2599]. In kind it is functional.

The target in test [4] is T6, Sentrin-specific protease 8 (Homo sapiens, UniProt Q96LD8).
T6 sequence (Q96LD8 whole entry): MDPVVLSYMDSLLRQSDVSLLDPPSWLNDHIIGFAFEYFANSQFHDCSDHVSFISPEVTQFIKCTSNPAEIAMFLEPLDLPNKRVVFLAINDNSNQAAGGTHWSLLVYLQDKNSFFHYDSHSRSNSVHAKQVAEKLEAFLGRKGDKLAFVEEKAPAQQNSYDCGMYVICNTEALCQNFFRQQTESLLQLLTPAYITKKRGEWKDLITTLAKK
As to the kind of experiment: SENP8 protease inhibitors, SAR follow-up, biochemical, luminescence (AID 504501). In kind it is functional.

In test [5] the target is T7, Sentrin-specific protease 7 (Homo sapiens, UniProt Q9BQF6).
T7 sequence (Q9BQF6 whole entry): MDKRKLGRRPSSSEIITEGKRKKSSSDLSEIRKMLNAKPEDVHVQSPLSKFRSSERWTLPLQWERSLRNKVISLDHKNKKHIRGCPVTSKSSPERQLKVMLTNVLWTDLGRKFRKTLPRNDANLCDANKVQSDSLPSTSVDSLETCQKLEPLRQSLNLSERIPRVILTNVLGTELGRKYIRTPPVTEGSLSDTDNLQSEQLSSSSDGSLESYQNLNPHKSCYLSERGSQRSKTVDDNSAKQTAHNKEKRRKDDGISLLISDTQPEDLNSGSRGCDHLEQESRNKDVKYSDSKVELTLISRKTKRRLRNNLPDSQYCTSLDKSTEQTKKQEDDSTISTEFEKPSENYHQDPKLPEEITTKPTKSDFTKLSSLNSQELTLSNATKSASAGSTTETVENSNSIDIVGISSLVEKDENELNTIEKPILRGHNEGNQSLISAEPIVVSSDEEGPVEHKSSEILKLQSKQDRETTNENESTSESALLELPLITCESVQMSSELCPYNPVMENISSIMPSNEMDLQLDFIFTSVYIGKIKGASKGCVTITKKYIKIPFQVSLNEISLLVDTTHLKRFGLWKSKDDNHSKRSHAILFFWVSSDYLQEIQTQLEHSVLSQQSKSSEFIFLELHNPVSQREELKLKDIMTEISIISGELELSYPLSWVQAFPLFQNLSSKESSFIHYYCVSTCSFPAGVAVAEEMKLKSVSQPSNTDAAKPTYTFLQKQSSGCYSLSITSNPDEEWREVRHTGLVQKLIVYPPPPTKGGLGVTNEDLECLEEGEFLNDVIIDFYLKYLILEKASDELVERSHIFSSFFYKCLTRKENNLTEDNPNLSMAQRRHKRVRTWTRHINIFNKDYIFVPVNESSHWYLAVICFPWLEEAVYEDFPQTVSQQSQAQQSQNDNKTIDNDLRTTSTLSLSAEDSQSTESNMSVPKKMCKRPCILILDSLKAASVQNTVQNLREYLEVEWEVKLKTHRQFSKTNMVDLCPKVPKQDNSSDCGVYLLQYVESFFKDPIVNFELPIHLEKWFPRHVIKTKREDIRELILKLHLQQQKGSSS
Nature of the test: SENP7 protease inhibitors, SAR follow-up, biochemical, luminescence (AID 504497). In kind it is functional.

Test [6] is described as follows: AlphaScreen signal interference compounds, dose response, artefact control for ARNT-TACC3 interaction inhibitor project, biochemical, luminescence, cherry-pick (AID 651705).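 Also: AlphaScreen bead proximity signal that flags compounds interfering with the detection technology; potency reflects signal decrease which marks the compound as an assay artifact.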 The class given is functional.
Test [7] can be described thus: inhibitors of intracellular T. cruzi replication, confirmation, NIH3T3 host cells, beta-gal luminescence (AID 2044).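 Also: intracellular parasites grown in NIH/3T3 mouse fibroblasts as host cells; luminescent beta-galactosidase reporter signal from transgenic T. cruzi replicating inside host cells; inhibitors lower the luminescence signal.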 The class given is functional, cell-based.
A short description of test [8]: ARNT/TACC3 interaction disruptors, potency, confirmation, biochemical, AlphaScreen, cherry-picked samples (AID 651703).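 Also: His-tagged ARNT PAS-B domain paired with GST-TACC3 E629A dimer coactivator fragment; potency of inhibitors that break up the complex and lower AlphaScreen signal.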 The class given is functional, Homo sapiens.
The subject of a further test is Vero. Nature of the test: cells. The class given is functional. To be noted: Chlorocebus sabaeus.
Test [9] deals with T8, DNA repair protein RAD52 homolog (Homo sapiens, UniProt P43351).
T8 sequence (P43351 whole entry): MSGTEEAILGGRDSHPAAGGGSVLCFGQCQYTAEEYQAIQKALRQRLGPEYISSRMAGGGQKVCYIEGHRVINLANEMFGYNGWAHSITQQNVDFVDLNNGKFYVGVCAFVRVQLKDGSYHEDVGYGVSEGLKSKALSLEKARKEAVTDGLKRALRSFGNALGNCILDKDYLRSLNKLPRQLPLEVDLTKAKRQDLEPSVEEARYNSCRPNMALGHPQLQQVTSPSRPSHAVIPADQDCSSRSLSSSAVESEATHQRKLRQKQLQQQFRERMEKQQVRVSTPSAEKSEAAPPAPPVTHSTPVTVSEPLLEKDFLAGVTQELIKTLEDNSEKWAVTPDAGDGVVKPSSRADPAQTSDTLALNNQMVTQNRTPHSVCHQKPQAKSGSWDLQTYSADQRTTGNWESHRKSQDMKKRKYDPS
The class given is functional, biochemical.

Test [10] can be described thus: cytotoxicity toward NIH3T3 fibroblasts, dose response, counter-screen, cell-based, ATP luminescence, mouse fibroblasts (AID 2010).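 Also: cells exposed to compound for about 90 hours before reading.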 In kind it is functional.

Cytochrome P450 2C19, sequence (P33261 whole entry): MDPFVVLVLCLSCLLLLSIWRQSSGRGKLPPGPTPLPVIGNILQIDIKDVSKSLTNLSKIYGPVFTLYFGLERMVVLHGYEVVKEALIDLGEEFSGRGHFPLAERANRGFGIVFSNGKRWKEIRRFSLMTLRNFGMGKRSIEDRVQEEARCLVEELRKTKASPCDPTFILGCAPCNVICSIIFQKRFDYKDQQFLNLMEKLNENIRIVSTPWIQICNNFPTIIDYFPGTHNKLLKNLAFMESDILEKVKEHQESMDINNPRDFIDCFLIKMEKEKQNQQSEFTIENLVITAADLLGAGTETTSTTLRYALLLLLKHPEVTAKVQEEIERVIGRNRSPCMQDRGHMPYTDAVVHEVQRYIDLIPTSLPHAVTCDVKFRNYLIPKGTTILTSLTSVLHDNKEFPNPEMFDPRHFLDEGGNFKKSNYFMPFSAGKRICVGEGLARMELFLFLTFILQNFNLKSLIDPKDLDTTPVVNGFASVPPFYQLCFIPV
Melanocortin receptor 4, sequence (P32245 whole entry): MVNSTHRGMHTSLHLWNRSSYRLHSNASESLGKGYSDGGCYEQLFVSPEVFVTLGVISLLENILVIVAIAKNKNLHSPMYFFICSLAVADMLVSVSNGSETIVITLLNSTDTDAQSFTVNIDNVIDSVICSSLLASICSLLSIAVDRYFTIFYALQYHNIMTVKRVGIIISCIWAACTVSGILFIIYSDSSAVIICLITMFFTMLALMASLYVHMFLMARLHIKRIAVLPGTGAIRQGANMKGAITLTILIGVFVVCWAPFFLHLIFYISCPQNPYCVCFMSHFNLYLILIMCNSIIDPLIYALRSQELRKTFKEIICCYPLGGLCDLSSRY
Cytochrome P450 2C9, sequence (P11712 whole entry): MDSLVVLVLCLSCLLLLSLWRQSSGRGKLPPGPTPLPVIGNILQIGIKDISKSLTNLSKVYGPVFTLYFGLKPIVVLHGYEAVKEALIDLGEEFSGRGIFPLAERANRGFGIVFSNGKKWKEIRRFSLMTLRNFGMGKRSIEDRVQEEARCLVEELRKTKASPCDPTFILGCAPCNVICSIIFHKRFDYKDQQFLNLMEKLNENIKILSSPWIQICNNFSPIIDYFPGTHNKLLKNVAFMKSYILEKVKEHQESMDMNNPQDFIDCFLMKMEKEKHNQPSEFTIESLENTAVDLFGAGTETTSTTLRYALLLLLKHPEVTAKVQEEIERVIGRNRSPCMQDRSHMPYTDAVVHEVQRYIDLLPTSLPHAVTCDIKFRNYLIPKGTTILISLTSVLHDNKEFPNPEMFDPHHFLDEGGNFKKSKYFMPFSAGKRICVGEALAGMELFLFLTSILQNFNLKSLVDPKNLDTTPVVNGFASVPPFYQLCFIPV

As for `O=C(NC(c1ccc(Cl)cc1)c1ccccn1)C1CCN(CCOc2ccc(Cl)cc2Cl)CC1` (stereo unspecified), at Melanocortin receptor 4, the EC50 is > 89.2 µM (inactive).
For `Sc1nc2cc(Cl)ccc2s1`, the AC50 was 11.2 µM (inconclusive) on Cytochrome P450 2C19 and 39.8 µM (inconclusive) on Cytochrome P450 2C9. Further, on Leucine aminopeptidase, the IC50 is 14.8 µM (active). In addition, the EC50 in test [1] was > 104 µM (inactive).
Regarding `Cc1ccc(C)c2nc3sc(C(=O)N4CCOCC4)c(N)c3cc12`, the EC50 in [1] is > 104 µM (inactive).
Take `COP(=O)(OC)SCn1c(=O)oc2cc(Cl)cnc21` [AZAMETHIPHOS]: in test [2], the AC50 is 44.7 µM (inconclusive).
As for `CS(=O)(=O)c1ccc(N/N=C/c2c[nH]c3ccccc23)cc1`, the IC50 (at Caspase-3; in test [3]; in test [4]; in test [5]) was > 99 µM (inactive) each time.
For `COc1cc2nc(Nc3ccc(C)c(C)c3)nc(N)c2cc1OC`, the figures for the AC50 in test [6], in test [8] and in test [9] were 89.2 µM (active), 74.1 µM (active) and 5.47 µM (active), respectively. The EC50 in test [7] is 0.559 µM (active); in test [10], > 30 µM (not active). Moreover, the CC50 in the test with Vero is 14.8 µM (active).
Turning to `COc1ccc(C(=O)Nc2ccc3ccccc3c2)cc1Br`, the IC50 (at Caspase-3; in [3]; in [4]; in test [5]) was > 99 µM (inactive) each time.
